Source: the NIST ThermoML archive (doi:10.1021/je400977r)
Numbers after ± are expanded uncertainties.

Assay: mn = molality of the nth substance listed, in mol/kg
Details: 101 kPa, Liquid; for speed of sound: Pulse-echo method

OC[C@H]1O[C@H](OC[C@H]2O[C@H](O[C@]3(CO)O[C@H](CO)[C@@H](O)[C@@H]3O)[C@H](O)[C@@H](O)[C@@H]2O)[C@H](O)[C@@H](O)[C@H]1O [D-raffinose] + O
Details	mass density, 293.15 K [kg/m3]	mass density, 298.15 K [kg/m3]	mass density, 303.15 K [kg/m3]	mass density, 308.15 K [kg/m3]	mass density, 313.15 K [kg/m3]	speed of sound, 293.15 K [m/s]	speed of sound, 298.15 K [m/s]	speed of sound, 303.15 K [m/s]	speed of sound, 308.15 K [m/s]	speed of sound, 313.15 K [m/s]
m1 = 0.05	1007.77 ± 1.8	1006.5 ± 1.8	1004.91 ± 1.8	1003.05 ± 1.7	1001.02 ± 1.7	1491.8 ± 3.3	1505.7 ± 3.4	1517.8 ± 3.4	1528.3 ± 3.3	1537.3 ± 3.2
m1 = 0.055	1008.68 ± 1.8	1007.4 ± 1.8	1005.81 ± 1.8	1003.92 ± 1.7	1001.99 ± 1.7	1492.6 ± 3.3	1506.5 ± 3.4	1518.6 ± 3.4	1529.1 ± 3.3	1538.1 ± 3.2
m1 = 0.06	1009.59 ± 1.8	1008.29 ± 1.8	1006.72 ± 1.8	1004.79 ± 1.7	1002.85 ± 1.7	1493.5 ± 3.3	1507.3 ± 3.3	1519.4 ± 3.2	1529.8 ± 3.2	1538.8 ± 3.2
m1 = 0.065	1010.49 ± 1.8	1009.18 ± 1.8	1007.61 ± 1.8	1005.69 ± 1.7	1003.72 ± 1.7	1494.3 ± 3.3	1508.2 ± 3.3	1520.2 ± 3.3	1530.6 ± 3.2	1539.6 ± 3.2
m1 = 0.07	1011.48 ± 1.8	1010.16 ± 1.8	1008.56 ± 1.8	1006.61 ± 1.8	1004.62 ± 1.7	1495.1 ± 3.3	1509 ± 3.3	1521 ± 3.3	1531.4 ± 3.2	1540.4 ± 3.2
m1 = 0.075	1012.36 ± 1.8	1011.1 ± 1.8	1009.46 ± 1.8	1007.55 ± 1.8	1005.58 ± 1.7	1496 ± 3.4	1509.8 ± 3.3	1521.8 ± 3.3	1532.1 ± 3.2	1541.1 ± 3.2
m1 = 0.08	1013.3 ± 1.8	1011.98 ± 1.8	1010.34 ± 1.8	1008.42 ± 1.8	1006.46 ± 1.8	1496.8 ± 3.4	1510.6 ± 3.4	1522.6 ± 3.3	1532.9 ± 3.2	1541.9 ± 3.2
m1 = 0.085	1014.21 ± 1.8	1012.93 ± 1.8	1011.23 ± 1.8	1009.29 ± 1.8	1007.35 ± 1.8	1497.7 ± 3.4	1511.4 ± 3.4	1523.4 ± 3.3	1533.7 ± 3.3	1542.7 ± 3.2
m1 = 0.09	1015.18 ± 1.8	1013.88 ± 1.8	1012.18 ± 1.8	1010.25 ± 1.8	1008.33 ± 1.8	1498.5 ± 3.5	1512.2 ± 3.4	1524.2 ± 3.4	1534.4 ± 3.3	1543.4 ± 3.2
m1 = 0.1	1016.99 ± 1.8	1015.7 ± 1.8	1014.08 ± 1.8	1011.99 ± 1.8	1010.23 ± 1.8	1500.1 ± 3.5	1513.9 ± 3.4	1525.8 ± 3.3	1536 ± 3.3	1544.9 ± 3.2
